The values that follow come from US20130053400A1, “OLIGOMER-ANTIHISTAMINE CONJUGATES” (priority 2007, published 2013).

Broadly, the Ki is a dissociation constant, usually derived from enzyme kinetics or from competition with a known ligand. Usually IC50 stands for the concentration needed to halve the response being measured.

Like-named read-outs stand apart in the source and are kept apart here.

The subject of data set [1] is intact rat brain. The conditions noted are these: in vivo, 30 seconds, 20 μM.
Description: Briefly, the RBP technique involves cannulation of the carotid artery followed by perfusion with a compound solution under controlled conditions, followed by a wash out phase to remove compound remaining in the vascular space. […] More specifically, in the RBP model, a cannula is placed in the left carotid artery and the side branches are tied off. […] After 30 seconds, the perfusion is stopped and the brain vascular contents are washed out with compound-free buffer for an additional 30 seconds. The brain tissue is then removed and analyzed for compound concentrations via liquid chromatograph with tandem mass spectrometry detection (LC/MS/MS).
Perfusion was performed using the single time-point method. The perfusion fluid (perfusate) containing the test compound(s) was infused into rats via the left external carotid artery at a constant rate by an infusion pump (20 mL/min). […] After homogenization, the total volume of homogenate was measured and recorded.
A measured amount of the homogenate diluted with organic solvent and centrifuged. The supernatant was removed, evaporated in a stream of nitrogen and reconstituted and analyzed by LC/MS/MS. Quantification of drug concentrations in brain homogenate was done against calibration curves generated by spiking the drugs into blank (i.e. drug-free) brain homogenate. […]
In data set [2] the target is human recombinant H1 histamine receptors (Homo sapiens, UniProt P35367). Put plainly: biochemical. The conditions noted are these: for Fold vs parent: Ki ratio. Here is the method: (Caliper Life Sciences, Hopkinton, Mass.). […] This study was performed using duplicate samples per data point (n=2).
human recombinant H1 histamine receptors, sequence (P35367 whole entry): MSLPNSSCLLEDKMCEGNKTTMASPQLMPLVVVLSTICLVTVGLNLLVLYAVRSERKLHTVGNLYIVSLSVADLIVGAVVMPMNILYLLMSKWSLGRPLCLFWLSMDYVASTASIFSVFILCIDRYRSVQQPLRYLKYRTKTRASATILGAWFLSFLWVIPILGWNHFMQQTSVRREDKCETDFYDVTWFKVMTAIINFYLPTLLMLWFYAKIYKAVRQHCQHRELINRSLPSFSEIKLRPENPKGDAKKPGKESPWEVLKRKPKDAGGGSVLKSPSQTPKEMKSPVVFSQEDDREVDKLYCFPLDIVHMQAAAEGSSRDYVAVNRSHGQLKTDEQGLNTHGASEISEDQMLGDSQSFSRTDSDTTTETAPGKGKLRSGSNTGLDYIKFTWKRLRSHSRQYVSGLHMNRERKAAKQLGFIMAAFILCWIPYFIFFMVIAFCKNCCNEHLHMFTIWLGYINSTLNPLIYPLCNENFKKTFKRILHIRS
Data set [3] concerns the target Histamine (H1) (Homo sapiens, UniProt P35367). Kind of data set: Histamine (H1) Binding Activity (Table I). The conditions noted are these: read-out: IC50.
The nature of data set [4]: Solubility. In kind it is physicochemical. As to conditions: Table I.
Data set [5] has as its system histamine-induced wheal and flare. Kind of data set: Wheal and flare further study, intravenous infusion. The conditions noted are these: IV infusion, rats. In kind it is in vivo, rats. Here is the method: Briefly, rats received a continuous infusion via the jugular vein catheter for 60 minutes. […] Sixty minutes after the start of the infusion period, the rats were given four (4) interdermal (ID) injections of histamine ([…] in saline; dose 50 μL at 10 μg/rat). […] Twenty minutes after the histamine injections a caliper (Fowler Sylvac Ultra-Cal Mark III) was used to measure the wheal and flare (the diameter of the blue area). Two measurements of the diameter of the blue area at the site of histamine injection were made at 90 degrees from one another. […] Blood samples collected via cardiac puncture were used for diphenhydramine quantitation. The blood samples were placed in vacutainer tubes containing K2 EDTA. The rats were exsanguinated and the brain was rinsed in ice cold saline, wrapped in foil and frozen. The brain and the plasma samples were analyzed for drug content.

For data set [6], the system named is histamine-induced wheal and flare response. In kind it is in vivo. As to the method:
Wheal and flare (erythema) experiments were performed in rats in order to measure in vivo activity of PEG-diphenhydramine. Intradermal injection of histamine produces a “wheal and flare” response in the skin as a result of histamine-induced mast cell degranulation, which is prevented by treatment with effective antihistamines.
Histamine was prepared from histamine diphosphate salt at 1 mg/mL (3.26 mM) in PBS, and was administered by intradermal injection 2.5 minutes after IV injection of the test article to the tail vein. At 5, 10, 20, 30 and 60 minutes post-injection, wheal sizes were measured using calipers and areas calculated (width×length, mm^2). Flare responses were measured by eye, and were graded on a scoring system of 1 (least significant)-5 (most severe).

[7] abbreviates: repeated assay (asterisk), n=3 samples per data point.

Histamine (H1), sequence (P35367 whole entry): as above

Take `Cc1cc(=O)n(-c2ccccc2)n1C` [Antipyrine]: the “Normalized Brain Uptake Rate (Mean ± SD)” value in data set [1] is recorded as 17.4 ± 5.7 pmole/gm brain/sec.

In the case of `COCCOCCOCCN(C)CCOC(c1ccccc1)c1ccccc1` [mPEG(3)-N-Diphenhydramine, mPEG3-N-diphenhydramine], the Fold vs parent in data set [2] (repeated assay (asterisk), n=3) came out at 7.8. Further, in data set [2] (setting [7]), the Ki was 124 nM.

As for `COCCOCCOCCOCCOCCOCCN(CCOC(c1ccccc1)c1ccccc1)CCOC(c1ccccc1)c1ccccc1` [mPEG6-N-(Diphenhydramine)2, mPEGn-N-(diphenhydramine)2], the IC50 in data set [3] was 6500 nM.

On to `COCCOCCOCCN1CCN(C(c2ccccc2)c2ccc(Cl)cc2)CC1` (centres unmarked) [PEG1 -Hydroxyzine, mPEG1-Hydroxyzine], for which the Solubility result in data set [4] was “soluble”. Moreover, in data set [3], the IC50 came to 70.3 nM.

Take `OCCOCCN1CCN(C(c2ccccc2)c2ccc(Cl)cc2)CC1` (centres unmarked) [Hydroxyzine, reference compound]: the “Normalized Brain Uptake Rate (Mean ± SD)” value in data set [1] was found to be 355.89 ± 59.02 pmole/gm brain/sec.

On to `CN(C)CCOC(c1ccccc1)c1ccccc1` [Diphenhydramine, reference compound], for which the “antihistamine efficacy (wheal size)” value in data set [5] is “dose dependent reduction in wheal size”. For the same molecule, the “flare response (visual scoring)” value in data set [6] (0.01 mg/kg) is given as “protective effect of diphenhydramine begins to decrease”; in data set [6] (0.03 mg/kg) it was “still suppresses the response effectively”; in data set [6] (highest concentrations) it was “no detectable flare”. In addition, the “percent decrease in the wheal response (change in wheal size)” value in data set [6] (20 minute time-point, 0.1-0.3 mg/kg dose range) is “approximately 40%”. Moreover, in data set [6] (all doses tested), the wheal size entry is “clear dose-dependent reduction”.

Regarding `COCCOCCOCCOCCOCCOCCOCCN1CCN(C(c2ccccc2)c2ccc(Cl)cc2)CC1` (centres unmarked) [PEG5-Hydroxyzine, mPEG5-Hydroxyzine], in data set [4], the Solubility result is listed as “soluble”. In addition, in data set [3], the IC50 worked out at 76.7 nM.

Regarding `COCCOCCOCCOCCN(C)CCOC(c1ccccc1)c1ccccc1` [mPEG(4)-N-Diphenhydramine, mPEG4-N-diphenhydramine], the Fold vs parent in data set [2] (repeated assay (asterisk), n=3) was found to be 12.7. Also, in data set [2] (setting [7]), the Ki is 200 nM.

With `COCCOCCOCCOCCOCCNC(=O)COCCN1CCN(C(c2ccccc2)c2ccc(Cl)cc2)CC1` (centres unmarked) [PEG5-Cetirizine, mPEG5-Cetirizine], the Solubility result in data set [4] is “soluble”.

Regarding `COCCOCCOCCOCCOCCOCCNCCOC(c1ccccc1)c1ccccc1` [mPEG(6)-NH-Diphenhydramine, mPEG6-NH-diphenhydramine], in data set [3], the IC50 came out at 4120 nM. Besides, the Fold vs parent in data set [2] (first run, n=2) came out at 62.5. Also, the Ki in data set [2] (first run, n=2 samples per data point) is 1890 nM.

As for `COCCOCCOCCOCCOCCN1CCN(C(c2ccccc2)c2ccc(Cl)cc2)CC1` (centres unmarked) [PEG3-Hydroxyzine, mPEG3-Hydroxyzine], the Solubility entry in data set [4] was “soluble”. Also, in data set [3], the IC50 was 105 nM.
